Experimental data published in PubChem BioAssay AID328 (DTP/NCI, 2004).
Values joined by “and” are separate entries in the source; they are usually repeats but may differ in a detail not shown here. Identical values can stand only once. Inconclusive results and toxic doses are left out.

Test system: BDF1 mice, P388 leukemia ip, median survival T/C
Assay: NCI In Vivo Anticancer Drug Screen. Data for tumor model P388 Leukemia (intraperitoneal) in B6D2F1 (BDF1) mice
Conditions: endpoint: median survival time, higher = longer survival
Procedure, shortened: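 In tumour-bearing mice, survival after compound treatment is set against the vehicle group and given as a quotient.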

[1] = dose: 100.0 mg/kg/injection, schedule: Q01DX009 (ip), vehicle: saline with Tween-80
[2] = dose: 100.0 mg/kg/injection, schedule: Q04DX003 (ip), vehicle: saline with Tween-80
[3] = dose: 200.0 mg/kg/injection, schedule: Q01DX009 (ip), vehicle: saline with Tween-80
[4] = dose: 200.0 mg/kg/injection, schedule: Q04DX003 (ip), vehicle: saline with Tween-80
[5] = dose: 400.0 mg/kg/injection, schedule: Q01DX009 (ip), vehicle: saline with Tween-80
[6] = dose: 50.0 mg/kg/injection, schedule: Q04DX003 (ip), vehicle: saline
[7] = dose: 100.0 mg/kg/injection, schedule: Q04DX003 (ip), vehicle: Klucel (hydroxypropylcellulose) (HPC)
[8] = dose: 200.0 mg/kg/injection, schedule: Q04DX003 (ip), vehicle: Klucel (hydroxypropylcellulose) (HPC)
[9] = dose: 400.0 mg/kg/injection, schedule: Q04DX003 (ip), vehicle: Klucel (hydroxypropylcellulose) (HPC)
[10] = dose: 50.0 mg/kg/injection, schedule: Q01DX009 (ip), vehicle: Klucel (hydroxypropylcellulose) (HPC)
[11] = dose: 100.0 mg/kg/injection, schedule: Q04DX003 (ip), vehicle: saline
[12] = dose: 200.0 mg/kg/injection, schedule: Q04DX003 (ip), vehicle: saline
[13] = dose: 25.0 mg/kg/injection, schedule: Q01DX009 (ip), vehicle: saline with Tween-80
[14] = dose: 50.0 mg/kg/injection, schedule: Q01DX009 (ip), vehicle: saline with Tween-80

## N=c1nc2n(cc1F)[C@@H]1O[C@H](CO)[C@@H](O)[C@@H]1O2
dose: 64.0 mg/kg/injection, schedule: Q01DX005 (ip), vehicle: saline
  T/C: 153 % of control
dose: 128.0 mg/kg/injection, schedule: Q01DX005 (ip), vehicle: saline
  T/C: 171 % of control
dose: 256.0 mg/kg/injection, schedule: Q01DX005 (ip), vehicle: saline
  T/C: 209 % of control
dose: 512.0 mg/kg/injection, schedule: Q01DX005 (ip), vehicle: saline
  T/C: 276 % of control
dose: 768.0 mg/kg/injection, schedule: Q01DX005 (ip), vehicle: saline
  T/C: 86 % of control

## Cc1nc(N)cc(=O)[nH]1
dose: 100.0 mg/kg/injection, schedule: Q01DX009 (ip), vehicle: water
  T/C: 105 % of control
dose: 200.0 mg/kg/injection, schedule: Q01DX009 (ip), vehicle: water
  T/C: 110 % of control
dose: 400.0 mg/kg/injection, schedule: Q01DX009 (ip), vehicle: water
  T/C: 95 % of control

## O=C(Cn1ccc(O)cc1=O)c1ccco1
[1]
  T/C: 100 % of control
[2]
  T/C: 100 % of control
[3]
  T/C: 95 % of control
[4]
  T/C: 109 % of control
[5]
  T/C: 104 % of control
dose: 400.0 mg/kg/injection, schedule: Q04DX003 (ip), vehicle: saline with Tween-80
  T/C: 104 % of control

## Oc1ccccc1OB(Oc1ccccc1O)N(CCCl)CCCl
dose: 8.1 mg/kg/injection, schedule: Q01DX009 (ip), vehicle: Klucel (hydroxypropylcellulose) (HPC)
  T/C: 122 % of control
dose: 16.5 mg/kg/injection, schedule: Q04DX003 (ip), vehicle: saline
  T/C: 86 % of control
dose: 18.5 mg/kg/injection, schedule: Q01DX009 (ip), vehicle: Klucel (hydroxypropylcellulose) (HPC)
  T/C: 170 % of control
dose: 24.75 mg/kg/injection, schedule: Q04DX003 (ip), vehicle: saline
  T/C: 150 % of control
dose: 28.12 mg/kg/injection, schedule: Q01DX009 (ip), vehicle: Klucel (hydroxypropylcellulose) (HPC)
  T/C: 190 % of control and 195 % of control
dose: 40.0 mg/kg/injection, schedule: Q01DX009 (ip), vehicle: Klucel (hydroxypropylcellulose) (HPC)
  T/C: 165 % of control
dose: 49.5 mg/kg/injection, schedule: Q04DX003 (ip), vehicle: saline
  T/C: 150 % of control
[6]
  T/C: 119 % of control

## O=[N+]([O-])c1ccc(Cl)c2c([N+](=O)[O-])cccc12
dose: 50.0 mg/kg/injection, schedule: Q04DX003 (ip), vehicle: saline with Tween-80
  T/C: 104 % of control
[2]
  T/C: 109 % of control
[4]
  T/C: 109 % of control

## O=C(Cn1ccc(O)cc1=O)c1ccc(Cl)s1
[1]
  T/C: 98 % of control
[3]
  T/C: 93 % of control
[5]
  T/C: 104 % of control

## ClC1=C(Cl)C(Cl)(C2(Cl)C(Cl)=C(Cl)C(Cl)=C2Cl)C(Cl)=C1Cl
dose: 100.0 mg/kg/injection, schedule: Q01DX009 (ip), vehicle: gum acacia
  T/C: 123 % of control
dose: 100.0 mg/kg/injection, schedule: Q04DX003 (ip), vehicle: gum acacia
  T/C: 108 % of control
dose: 200.0 mg/kg/injection, schedule: Q04DX003 (ip), vehicle: gum acacia
  T/C: 116 % of control
dose: 400.0 mg/kg/injection, schedule: Q04DX003 (ip), vehicle: gum acacia
  T/C: 104 % of control

## O=[N+]([O-])c1cccc(C=Nc2cccc(C(F)(F)F)c2)c1
dose: 3.0 mg/kg/injection, schedule: Q01DX009 (ip), vehicle: Klucel (hydroxypropylcellulose) (HPC)
  T/C: 95 % of control
dose: 6.0 mg/kg/injection, schedule: Q01DX009 (ip), vehicle: Klucel (hydroxypropylcellulose) (HPC)
  T/C: 95 % of control
dose: 12.0 mg/kg/injection, schedule: Q01DX009 (ip), vehicle: Klucel (hydroxypropylcellulose) (HPC)
  T/C: 100 % of control
[7]
  T/C: 104 % of control
[8]
  T/C: 95 % of control
[9]
  T/C: 95 % of control

## CCCCCCCCCCCCCC(=O)[O][Sn]([CH2]CCC)([CH2]CCC)[O]C(=O)CCCCCCCCCCCCC
dose: 0.78 mg/kg/injection, schedule: Q04DX003 (ip), vehicle: other
  T/C: 104 % of control
dose: 1.56 mg/kg/injection, schedule: Q04DX003 (ip), vehicle: other
  T/C: 109 % of control
dose: 3.13 mg/kg/injection, schedule: Q04DX003 (ip), vehicle: other
  T/C: 113 % of control

## CC(Br)(C(Br)c1ccccc1)[N+](=O)[O-] (stereo not given)
[10]
  T/C: 123 % of control

## CC(C)(C)OC(=O)CNC(=O)CCl
[6]
  T/C: 100 % of control
[11]
  T/C: 100 % of control
[12]
  T/C: 108 % of control

## O=C(O)CNCc1ccc(F)cc1
[6]
  T/C: 111 % of control
[11]
  T/C: 120 % of control
[12]
  T/C: 115 % of control

## O=C(O)c1ccc(C(=O)O)c(C(=O)O)c1.[NH-]C1CCCCC1[NH-].[Pt+2]
dose: 30.0 mg/kg/injection, schedule: Q01DX001 (ip), vehicle: sodium bicarbonate
  T/C: 164 % of control
dose: 50.0 mg/kg/injection, schedule: Q01DX001 (ip), vehicle: sodium bicarbonate
  T/C: 162 % of control

## CCCC(=O)Nc1ccn(C2OC(COC(=O)CCC)C(OC(=O)CCC)C2OC(=O)CCC)c(=O)n1 (stereo not given)
dose: 6.25 mg/kg/injection, schedule: Q01DX009 (ip), vehicle: Klucel (hydroxypropylcellulose) (HPC)
  T/C: 91 % of control
dose: 12.5 mg/kg/injection, schedule: Q01DX009 (ip), vehicle: Klucel (hydroxypropylcellulose) (HPC)
  T/C: 100 % of control
dose: 25.0 mg/kg/injection, schedule: Q01DX009 (ip), vehicle: Klucel (hydroxypropylcellulose) (HPC)
  T/C: 87 % of control
[10]
  T/C: 104 % of control
[7]
  T/C: 100 % of control
dose: 200.0 mg/kg/injection, schedule: Q01DX009 (ip), vehicle: Klucel (hydroxypropylcellulose) (HPC)
  T/C: 165 % of control and 177 % of control
[8]
  T/C: 109 % of control
dose: 400.0 mg/kg/injection, schedule: Q01DX009 (ip), vehicle: Klucel (hydroxypropylcellulose) (HPC)
  T/C: 181 % of control and 190 % of control
[9]
  T/C: 122 % of control

## CCOC(=O)Oc1c(OC)cc(C(=O)O[C@@H]2C[C@@H]3CN4CCc5c([nH]c6cc(OC)ccc56)[C@H]4C[C@@H]3[C@H](C(=O)OC)[C@H]2OC)cc1OC
[13]
  T/C: 100 % of control

## COc1ccc(Cl)cc1NC(=O)c1ccccc1C(=O)O
[7]
  T/C: 91 % of control
[8]
  T/C: 87 % of control
[9]
  T/C: 87 % of control

## CC(C)=CC(=O)OC1C2C(C)C(=O)OC2C(O)C(C)C2C=CC(=O)C21C (stereo not given)
dose: 3.12 mg/kg/injection, schedule: Q01DX009 (ip), vehicle: saline
  T/C: 94 % of control
dose: 6.25 mg/kg/injection, schedule: Q01DX009 (ip), vehicle: saline
  T/C: 101 % of control
dose: 12.5 mg/kg/injection, schedule: Q01DX009 (ip), vehicle: saline
  T/C: 103 % of control
dose: 25.0 mg/kg/injection, schedule: Q01DX009 (ip), vehicle: saline
  T/C: 120 % of control
[10]
  T/C: 118 % of control
dose: 50.0 mg/kg/injection, schedule: Q01DX009 (ip), vehicle: saline
  T/C: 120 % of control

## CCCC[N+](CC)(CC)CCCNC1=CC(=O)C(NCCC[N+](CC)(CC)CCCC)=CC1=O
dose: 0.39 mg/kg/injection, schedule: Q04DX002 (ip), vehicle: saline
  T/C: 105 % of control
dose: 0.78 mg/kg/injection, schedule: Q04DX002 (ip), vehicle: saline
  T/C: 105 % of control

## N#Cc1c[nH]n2c(=S)ncnc12
[14]
  T/C: 107 % of control
[1]
  T/C: 90 % of control
[2]
  T/C: 104 % of control
[3]
  T/C: 93 % of control
[4]
  T/C: 109 % of control
dose: 300.0 mg/kg/injection, schedule: Q01DX009 (ip), vehicle: saline with Tween-80
  T/C: 99 % of control

## Cc1ccc(NC(=O)Oc2ccc(Cl)c(C)c2)c([N+](=O)[O-])c1
dose: 12.5 mg/kg/injection, schedule: Q01DX009 (ip), vehicle: saline with Tween-80
  T/C: 108 % of control
[13]
  T/C: 102 % of control
[14]
  T/C: 117 % of control

## CN(C)CNc1ncnc2onc(-c3ccccc3)c12
dose: 50.0 mg/kg/injection, schedule: Q01DX009 (ip), vehicle: other
  T/C: 100 % of control
dose: 100.0 mg/kg/injection, schedule: Q01DX009 (ip), vehicle: other
  T/C: 102 % of control

## C=C(C)C(=O)NCC(=O)Oc1ccc([N+](=O)[O-])cc1
[14]
  T/C: 86 % of control
[1]
  T/C: 102 % of control
[3]
  T/C: 93 % of control

## OCCCN1CNC(=S)NC1
dose: 100.0 mg/kg/injection, schedule: Q01DX009 (ip), vehicle: saline
  T/C: 108 % of control
dose: 200.0 mg/kg/injection, schedule: Q01DX009 (ip), vehicle: saline
  T/C: 108 % of control

## C[As](C)SC(CO)C1OC2OC(C)(C)OC2C1O (stereo not given)
dose: 12.5 mg/kg/injection, schedule: Q01DX009 (ip), vehicle: saline + alcohol
  T/C: 97 % of control
dose: 25.0 mg/kg/injection, schedule: Q01DX009 (ip), vehicle: saline + alcohol
  T/C: 100 % of control
dose: 50.0 mg/kg/injection, schedule: Q01DX009 (ip), vehicle: saline + alcohol
  T/C: 106 % of control
